Measurements published in ChEMBL document CHEMBL3616405 (J Med Chem, 2015).

Legend:
[1] = molecular target: T1, Glucagon-like peptide 1 receptor (Homo sapiens, UniProt P43220); assay: Agonist activity at human GLP1 receptor expressed in BHK cells after 3 hrs by CRE firefly luciferase reporter gene assay in absence of human serum albumin; assay type: functional, cell-based
[2] = molecular target: T1, Glucagon-like peptide 1 receptor; assay: Displacement of [125I]-GLP1 from human GLP1 receptor expressed in BHK cells after 2 hrs in absence of human serum albumin; assay type: cell-based
[3] = molecular target: T1, Glucagon-like peptide 1 receptor; assay: Displacement of [125I]-GLP1 from human GLP1 receptor expressed in BHK cells after 2 hrs in presence of 2% human serum albumin; assay type: cell-based

T1 sequence (P43220 whole entry): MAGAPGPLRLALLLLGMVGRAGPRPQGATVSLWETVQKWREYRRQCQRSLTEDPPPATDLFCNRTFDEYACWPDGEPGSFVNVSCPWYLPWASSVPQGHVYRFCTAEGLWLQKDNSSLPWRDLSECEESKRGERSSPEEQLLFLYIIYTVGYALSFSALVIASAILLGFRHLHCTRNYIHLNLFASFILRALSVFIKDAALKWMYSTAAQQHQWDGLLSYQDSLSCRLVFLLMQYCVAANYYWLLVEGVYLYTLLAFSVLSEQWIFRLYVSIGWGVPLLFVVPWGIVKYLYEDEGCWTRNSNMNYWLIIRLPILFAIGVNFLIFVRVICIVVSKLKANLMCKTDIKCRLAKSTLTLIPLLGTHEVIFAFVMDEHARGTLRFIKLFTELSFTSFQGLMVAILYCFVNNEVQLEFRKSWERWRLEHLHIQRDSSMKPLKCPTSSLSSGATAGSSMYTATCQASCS

SMILES | EC50 [1] [nM] | IC50 [2] [nM] | IC50 [3] [nM]
CC[C@H](C)[C@H](NC(=O)[C@H](Cc1ccccc1)NC(=O)[C@H](CCC(=O)O)NC(=O)[C@H](CCCCNC(=O)CCCCCCCCCCCCCCCCC(=O)O)NC(=O)[C@H](C)NC(=O)[C@H](C)NC(=O)[C@H](CCC(N)=O)NC(=O)CNC(=O)[C@H](CCC(=O)O)NC(=O)[C@H](CC(C)C)NC(=O)[C@H](Cc1ccc(O)cc1)NC(=O)[C@H](CO)NC(=O)[C@H](CO)NC(=O)[C@@H](NC(=O)[C@H](CC(=O)O)NC(=O)[C@H](CO)NC(=O)[C@@H](NC(=O)[C@H](Cc1ccccc1)NC(=O)[C@@H](NC(=O)CNC(=O)[C@H](CCC(=O)O)NC(=O)C(C)(C)NC(=O)[C@@H](N)Cc1c[nH]cn1)[C@@H](C)O)[C@@H](C)O)C(C)C)C(=O)N[C@@H](C)C(=O)N[C@@H](Cc1c[nH]c2ccccc12)C(=O)N[C@@H](CC(C)C)C(=O)N[C@H](C(=O)N[C@@H](CCCNC(=N)N)C(=O)NCC(=O)N[C@@H](CCCNC(=N)N)C(=O)NCC(=O)O)C(C)C | 0.269 | 1.86 | 27
CC[C@H](C)[C@H](NC(=O)[C@H](Cc1ccccc1)NC(=O)[C@H](CCC(=O)O)NC(=O)[C@H](CCCCN)NC(=O)[C@H](C)NC(=O)[C@H](C)NC(=O)[C@H](CCC(N)=O)NC(=O)[C@H](CCCCNC(=O)COCCOCCNC(=O)COCCOCCNC(=O)CC[C@H](NC(=O)CCCCCCCCCCCCCCCCC(=O)O)C(=O)O)NC(=O)[C@H](CCC(=O)O)NC(=O)[C@H](CC(C)C)NC(=O)[C@H](Cc1ccc(O)cc1)NC(=O)[C@H](CO)NC(=O)[C@H](CO)NC(=O)[C@@H](NC(=O)[C@H](CC(=O)O)NC(=O)[C@H](CO)NC(=O)[C@@H](NC(=O)[C@H](Cc1ccccc1)NC(=O)[C@@H](NC(=O)CNC(=O)[C@H](CCC(=O)O)NC(=O)C(C)(C)NC(=O)[C@@H](N)Cc1c[nH]cn1)[C@@H](C)O)[C@@H](C)O)C(C)C)C(=O)N[C@@H](C)C(=O)N[C@@H](Cc1c[nH]c2ccccc12)C(=O)N[C@@H](CC(C)C)C(=O)N[C@H](C(=O)N[C@@H](CCCCN)C(=O)NCC(=O)N[C@@H](CCCNC(=N)N)C(=O)NCC(=O)O)C(C)C | 0.0027 | 0.06 | 17.7
CC[C@H](C)[C@H](NC(=O)[C@H](Cc1ccccc1)NC(=O)[C@H](CCC(=O)O)NC(=O)[C@H](CCCCNC(=O)COCCOCCNC(=O)CC[C@H](NC(=O)CCCNC(=O)CCCCCCCCCCCCCCCCC(=O)O)C(=O)O)NC(=O)[C@H](C)NC(=O)[C@H](C)NC(=O)[C@H](CCC(N)=O)NC(=O)CNC(=O)[C@H](CCC(=O)O)NC(=O)[C@H](CC(C)C)NC(=O)[C@H](Cc1ccc(O)cc1)NC(=O)[C@H](CO)NC(=O)[C@H](CO)NC(=O)[C@@H](NC(=O)[C@H](CC(=O)O)NC(=O)[C@H](CO)NC(=O)[C@@H](NC(=O)[C@H](Cc1ccccc1)NC(=O)[C@@H](NC(=O)CNC(=O)[C@H](CCC(=O)O)NC(=O)C(C)(C)NC(=O)[C@@H](N)Cc1c[nH]cn1)[C@@H](C)O)[C@@H](C)O)C(C)C)C(=O)N[C@@H](C)C(=O)N[C@@H](Cc1c[nH]c2ccccc12)C(=O)N[C@@H](CC(C)C)C(=O)N[C@H](C(=O)N[C@@H](CCCNC(=N)N)C(=O)NCC(=O)N[C@@H](CCCNC(=N)N)C(=O)NCC(=O)O)C(C)C | 0.0107 |  | 20.7
CC[C@H](C)[C@H](NC(=O)[C@H](Cc1ccccc1)NC(=O)[C@H](CCC(=O)O)NC(=O)[C@H](CCCCNC(=O)COCCOCCNC(=O)COCCOCCNC(=O)c1ccc(CN(CCC(=O)O)C(=O)CCCCCCCCCCCCCCCCC(=O)O)cc1)NC(=O)[C@H](C)NC(=O)[C@H](C)NC(=O)[C@H](CCC(N)=O)NC(=O)CNC(=O)[C@H](CCC(=O)O)NC(=O)[C@H](CC(C)C)NC(=O)[C@H](Cc1ccc(O)cc1)NC(=O)[C@H](CO)NC(=O)[C@H](CO)NC(=O)[C@@H](NC(=O)[C@H](CC(=O)O)NC(=O)[C@H](CO)NC(=O)[C@@H](NC(=O)[C@H](Cc1ccccc1)NC(=O)[C@@H](NC(=O)CNC(=O)[C@H](CCC(=O)O)NC(=O)C(C)(C)NC(=O)[C@@H](N)Cc1c[nH]cn1)[C@@H](C)O)[C@@H](C)O)C(C)C)C(=O)N[C@@H](C)C(=O)N[C@@H](Cc1c[nH]c2ccccc12)C(=O)N[C@@H](CC(C)C)C(=O)N[C@H](C(=O)N[C@@H](CCCNC(=N)N)C(=O)NCC(=O)N[C@@H](CCCNC(=N)N)C(=O)NCC(=O)O)C(C)C |  | 9.19 | 51.7

Molecules with a lower IC50 [3], results first:

EC50 [1] [nM] | IC50 [2] [nM] | IC50 [3] [nM] | SMILES
0.0032 | 0.04 | 1.99 | CCCCCCCCCCCCCCCCCC(=O)N[C@@H](CCC(=O)NCCOCCOCC(=O)NCCOCCOCC(=O)NCCCC[C@H](NC(=O)[C@H](C)NC(=O)[C@H](C)NC(=O)[C@H](CCC(N)=O)NC(=O)CNC(=O)[C@H](CCC(=O)O)NC(=O)[C@H](CC(C)C)NC(=O)[C@H](Cc1ccc(O)cc1)NC(=O)[C@H](CO)NC(=O)[C@H](CO)NC(=O)[C@@H](NC(=O)[C@H](CC(=O)O)NC(=O)[C@H](CO)NC(=O)[C@@H](NC(=O)[C@H](Cc1ccccc1)NC(=O)[C@@H](NC(=O)CNC(=O)[C@H](CCC(=O)O)NC(=O)C(C)(C)NC(=O)[C@@H](N)Cc1c[nH]cn1)[C@@H](C)O)[C@@H](C)O)C(C)C)C(=O)N[C@@H](CCC(=O)O)C(=O)N[C@@H](Cc1ccccc1)C(=O)N[C@H](C(=O)N[C@@H](C)C(=O)N[C@@H](Cc1c[nH]c2ccccc12)C(=O)N[C@@H](CC(C)C)C(=O)N[C@H](C(=O)N[C@@H](CCCNC(=N)N)C(=O)NCC(=O)N[C@@H](CCCNC(=N)N)C(=O)NCC(=O)O)C(C)C)[C@@H](C)CC)C(=O)O
0.0873 | 0.31 | 7.55 | CC[C@H](C)[C@H](NC(=O)[C@H](Cc1ccccc1)NC(=O)[C@H](CCC(=O)O)NC(=O)[C@H](CCCNC(=N)N)NC(=O)[C@H](C)NC(=O)[C@H](C)NC(=O)[C@H](CCC(N)=O)NC(=O)CNC(=O)[C@H](CCC(=O)O)NC(=O)[C@H](CC(C)C)NC(=O)[C@H](Cc1ccc(O)cc1)NC(=O)[C@H](CO)NC(=O)[C@H](CO)NC(=O)[C@@H](NC(=O)[C@H](CC(=O)O)NC(=O)[C@H](CO)NC(=O)[C@@H](NC(=O)[C@H](Cc1ccccc1)NC(=O)[C@@H](NC(=O)CNC(=O)[C@H](CCC(=O)O)NC(=O)C(C)(C)NC(=O)[C@@H](N)Cc1c[nH]cn1)[C@@H](C)O)[C@@H](C)O)C(C)C)C(=O)N[C@@H](C)C(=O)N[C@@H](Cc1c[nH]c2ccccc12)C(=O)N[C@@H](CC(C)C)C(=O)N[C@H](C(=O)N[C@@H](CCCNC(=N)N)C(=O)NCC(=O)N[C@@H](CCCNC(=N)N)C(=O)NCC(=O)N[C@@H](CCCCNC(=O)CCCCCCCCCCCCCCCCC(=O)O)C(=O)O)C(C)C
0.166 | 3.25 | 12.8 | CC[C@H](C)[C@H](NC(=O)[C@H](Cc1ccccc1)NC(=O)[C@H](CCC(=O)O)NC(=O)[C@H](CCCCNC(=O)COCCOCCNC(=O)COCCOCCNC(=O)CCCCCCCCCCCCCCC(=O)O)NC(=O)[C@H](C)NC(=O)[C@H](C)NC(=O)[C@H](CCC(N)=O)NC(=O)CNC(=O)[C@H](CCC(=O)O)NC(=O)[C@H](CC(C)C)NC(=O)[C@H](Cc1ccc(O)cc1)NC(=O)[C@H](CO)NC(=O)[C@H](CO)NC(=O)[C@@H](NC(=O)[C@H](CC(=O)O)NC(=O)[C@H](CO)NC(=O)[C@@H](NC(=O)[C@H](Cc1ccccc1)NC(=O)[C@@H](NC(=O)CNC(=O)[C@H](CCC(=O)O)NC(=O)C(C)(C)NC(=O)[C@@H](N)Cc1c[nH]cn1)[C@@H](C)O)[C@@H](C)O)C(C)C)C(=O)N[C@@H](C)C(=O)N[C@@H](Cc1c[nH]c2ccccc12)C(=O)N[C@@H](CC(C)C)C(=O)N[C@H](C(=O)N[C@@H](CCCNC(=N)N)C(=O)NCC(=O)N[C@@H](CCCNC(=N)N)C(=O)NCC(=O)O)C(C)C
 |  | 3.78 | CCCCCCCCCCCCCCCC(=O)N[C@@H](CCC(=O)NCCOCCOCC(=O)NCCOCCOCC(=O)NCCCC[C@H](NC(=O)[C@H](C)NC(=O)[C@H](C)NC(=O)[C@H](CCC(N)=O)NC(=O)CNC(=O)[C@H](CCC(=O)O)NC(=O)[C@H](CC(C)C)NC(=O)[C@H](Cc1ccc(O)cc1)NC(=O)[C@H](CO)NC(=O)[C@H](CO)NC(=O)[C@@H](NC(=O)[C@H](CC(=O)O)NC(=O)[C@H](CO)NC(=O)[C@@H](NC(=O)[C@H](Cc1ccccc1)NC(=O)[C@@H](NC(=O)CNC(=O)[C@H](CCC(=O)O)NC(=O)C(C)(C)NC(=O)[C@@H](N)Cc1c[nH]cn1)[C@@H](C)O)[C@@H](C)O)C(C)C)C(=O)N[C@@H](CCC(=O)O)C(=O)N[C@@H](Cc1ccccc1)C(=O)N[C@H](C(=O)N[C@@H](C)C(=O)N[C@@H](Cc1c[nH]c2ccccc12)C(=O)N[C@@H](CC(C)C)C(=O)N[C@H](C(=O)N[C@@H](CCCNC(=N)N)C(=O)NCC(=O)N[C@@H](CCCNC(=N)N)C(=O)NCC(=O)O)C(C)C)[C@@H](C)CC)C(=O)O
0.0048 | 0.18 | 0.88 | CCCCCCCCCCCCCCCCCCCC(=O)N[C@@H](CCC(=O)NCCOCCOCC(=O)NCCOCCOCC(=O)NCCCC[C@H](NC(=O)[C@H](C)NC(=O)[C@H](C)NC(=O)[C@H](CCC(N)=O)NC(=O)CNC(=O)[C@H](CCC(=O)O)NC(=O)[C@H](CC(C)C)NC(=O)[C@H](Cc1ccc(O)cc1)NC(=O)[C@H](CO)NC(=O)[C@H](CO)NC(=O)[C@@H](NC(=O)[C@H](CC(=O)O)NC(=O)[C@H](CO)NC(=O)[C@@H](NC(=O)[C@H](Cc1ccccc1)NC(=O)[C@@H](NC(=O)CNC(=O)[C@H](CCC(=O)O)NC(=O)C(C)(C)NC(=O)[C@@H](N)Cc1c[nH]cn1)[C@@H](C)O)[C@@H](C)O)C(C)C)C(=O)N[C@@H](CCC(=O)O)C(=O)N[C@@H](Cc1ccccc1)C(=O)N[C@H](C(=O)N[C@@H](C)C(=O)N[C@@H](Cc1c[nH]c2ccccc12)C(=O)N[C@@H](CC(C)C)C(=O)N[C@H](C(=O)N[C@@H](CCCNC(=N)N)C(=O)NCC(=O)N[C@@H](CCCNC(=N)N)C(=O)NCC(=O)O)C(C)C)[C@@H](C)CC)C(=O)O
